Test results as given in patent publication US20040006236A1, “Diaminopropionic acid derivatives” (priority 1999, published 2004).
Like-named read-outs stand apart in the source and are kept apart here.

What was measured:
[1] = system: T lymphocyte proliferation (C57BI/6 spleen cells with irradiated BALB/c spleen cells); assay: Mixed lymphocyte reaction (MLR), one-way; assay type: cell-based, mice
Summary of the method: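 One-way murine MLR: C57BI/6 responder splenocytes proliferate against irradiated BALB/c stimulators while exposed to serially diluted antagonists in supplemented RPMI1640 for 3 days. Proliferation read as [3H]-thymidine uptake over a final 6 h pulse (0.5 μCi/well), scintillation counted.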

[2] = target: T1, LFA-1 binding to immobilized ICAM-1 (Homo sapiens, UniProt P05107+P20701); assay: LFA-1/ICAM-1 protein-protein assay (solid-phase ELISA)
T1 construct: made in house; host or cells: transfected 293 cells (LFA-1)
T1 sequence (P20701 26-1170): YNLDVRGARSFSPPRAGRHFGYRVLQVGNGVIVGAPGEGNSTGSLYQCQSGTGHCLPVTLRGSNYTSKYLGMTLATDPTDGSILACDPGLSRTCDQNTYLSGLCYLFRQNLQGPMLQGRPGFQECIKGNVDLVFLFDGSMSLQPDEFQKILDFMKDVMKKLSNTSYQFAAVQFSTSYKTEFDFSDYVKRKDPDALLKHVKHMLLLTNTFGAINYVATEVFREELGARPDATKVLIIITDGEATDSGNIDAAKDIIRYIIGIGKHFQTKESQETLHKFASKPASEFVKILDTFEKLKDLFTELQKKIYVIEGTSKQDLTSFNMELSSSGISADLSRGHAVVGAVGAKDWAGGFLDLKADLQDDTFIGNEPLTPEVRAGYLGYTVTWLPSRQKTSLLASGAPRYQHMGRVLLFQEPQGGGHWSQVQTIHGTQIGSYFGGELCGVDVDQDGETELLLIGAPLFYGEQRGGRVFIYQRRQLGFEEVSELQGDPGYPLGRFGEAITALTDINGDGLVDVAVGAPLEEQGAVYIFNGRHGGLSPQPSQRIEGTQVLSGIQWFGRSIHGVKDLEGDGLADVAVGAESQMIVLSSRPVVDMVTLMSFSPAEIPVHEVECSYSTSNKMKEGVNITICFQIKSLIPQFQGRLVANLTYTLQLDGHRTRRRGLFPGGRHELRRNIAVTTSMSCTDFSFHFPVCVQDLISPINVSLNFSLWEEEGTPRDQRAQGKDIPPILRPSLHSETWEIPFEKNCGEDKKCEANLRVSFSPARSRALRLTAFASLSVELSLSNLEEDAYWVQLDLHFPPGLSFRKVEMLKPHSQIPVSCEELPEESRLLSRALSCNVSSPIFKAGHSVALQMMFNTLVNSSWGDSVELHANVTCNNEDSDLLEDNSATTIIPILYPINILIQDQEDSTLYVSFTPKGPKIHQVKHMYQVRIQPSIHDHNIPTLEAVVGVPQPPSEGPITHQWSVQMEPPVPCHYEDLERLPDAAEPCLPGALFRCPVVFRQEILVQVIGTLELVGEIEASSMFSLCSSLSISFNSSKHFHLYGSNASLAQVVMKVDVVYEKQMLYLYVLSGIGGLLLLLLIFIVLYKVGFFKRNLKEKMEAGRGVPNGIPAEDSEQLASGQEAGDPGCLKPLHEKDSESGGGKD
T1 sequence (P05107 23-769): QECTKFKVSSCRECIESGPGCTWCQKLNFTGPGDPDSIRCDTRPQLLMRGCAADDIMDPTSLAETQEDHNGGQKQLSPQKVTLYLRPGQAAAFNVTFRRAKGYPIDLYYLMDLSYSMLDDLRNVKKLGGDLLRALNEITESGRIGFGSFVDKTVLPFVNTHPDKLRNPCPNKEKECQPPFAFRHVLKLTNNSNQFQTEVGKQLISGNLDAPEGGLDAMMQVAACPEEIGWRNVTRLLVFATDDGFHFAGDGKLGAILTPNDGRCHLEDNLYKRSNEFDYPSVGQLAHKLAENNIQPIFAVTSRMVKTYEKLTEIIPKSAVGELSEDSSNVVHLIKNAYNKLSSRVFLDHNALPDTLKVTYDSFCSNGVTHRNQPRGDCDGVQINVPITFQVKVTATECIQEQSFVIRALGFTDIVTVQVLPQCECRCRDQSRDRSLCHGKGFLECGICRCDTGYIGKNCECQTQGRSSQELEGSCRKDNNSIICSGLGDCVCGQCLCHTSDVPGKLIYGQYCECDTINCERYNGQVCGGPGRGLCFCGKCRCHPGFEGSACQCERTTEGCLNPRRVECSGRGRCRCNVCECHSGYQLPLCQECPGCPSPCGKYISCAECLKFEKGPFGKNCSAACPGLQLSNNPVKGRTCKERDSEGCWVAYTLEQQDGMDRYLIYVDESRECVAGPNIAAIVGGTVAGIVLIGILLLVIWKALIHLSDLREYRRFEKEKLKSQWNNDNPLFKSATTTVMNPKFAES
Summary of the method: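 Human 5dICAM-Ig (ICAM-1 extracellular domain–IgG Fc) coated on plates; membrane-bound LFA-1 from transfected 293 cells (280 ng/mL) added with compound in Mn2+-containing HEPES buffer pH 7.2, 2 h at 37° C. Bound LFA-1 detected via anti-β2 antibody and HRP/TMB at 450 nm; IC50s determined.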

[3] = Mus musculus, T-lymphocyte; read-out: MLR IC50
[4] = read-out: LFA-1/ICAM-1 Protein-Protein Assay IC50
[5] = Mus musculus, T-lymphocyte, read-out: MLR IC50
[6] = LFA-1/ICAM-1 Protein-Protein Assay IC50

Row | SMILES | IC50 [2, 4] | IC50 [1, 3] | IC50 [1, 5] | IC50 [2, 6]
1 | O=C(CC1CCCCC1)NC[C@H](NC(=O)c1ccc(C(=O)NCc2cccc(O)c2)cc1Cl)C(=O)O [Example 78] | 1 nM | 1020 nM | – | –
2 | O=C(Cc1ccccc1)NC[C@H](NC(=O)c1ccc(C(=O)NCc2cccc(O)c2)cc1Cl)C(=O)O [Example 79] | 2.9 nM | 2500 nM | – | –
3 | COc1ccc(CC(=O)NC[C@H](NC(=O)c2ccc(C(=O)NCc3cccc(O)c3)cc2Cl)C(=O)O)cc1 [Example 80] | 6 nM | 1800 nM | – | –
4 | O=C(Cc1ccc([N+](=O)[O-])cc1)NC[C@H](NC(=O)c1ccc(C(=O)NCc2cccc(O)c2)cc1Cl)C(=O)O [Example 81] | 4 nM | 1650 nM | – | –
5 | O=C(Cc1cccc(C(F)(F)F)c1)NC[C@H](NC(=O)c1ccc(C(=O)NCc2cccc(O)c2)cc1Cl)C(=O)O [Example 82] | 4.3 nM | 1700 nM | – | –
6 | O=C(Cc1ccc([N+](=O)[O-])cc1[N+](=O)[O-])NC[C@H](NC(=O)c1ccc(C(=O)NCc2cccc(O)c2)cc1Cl)C(=O)O [Example 83] | – | – | 460 nM | 2.3 nM
7 | O=C(NCc1cccc(O)c1)c1ccc(C(=O)N[C@@H](CNC(=O)C(c2ccccc2)c2ccccc2)C(=O)O)c(Cl)c1 [Example 86] | 3.3 nM | 4150 nM | – | –
8 | O=C(C[n+]1csc2ccccc21)NC[C@H](NC(=O)c1ccc(C(=O)NCc2cccc(O)c2)cc1Cl)C(=O)O [Example 89] | 5.9 nM | 10500 nM | – | –
9 | O=C(CCc1ccccc1)NC[C@H](NC(=O)c1ccc(C(=O)NCc2cccc(O)c2)cc1Cl)C(=O)O [Example 94] | 1.5 nM | 1400 nM | – | –
10 | O=C(NCc1cccc(O)c1)c1ccc(C(=O)N[C@@H](CNC(=O)c2cc([N+](=O)[O-])cc([N+](=O)[O-])c2)C(=O)O)c(Cl)c1 [Example 129] | – | – | 3000 nM | 4.2 nM
11 | O=C(NCc1cccc(O)c1)c1ccc(C(=O)N[C@@H](CNC(=O)c2cc3ccccc3s2)C(=O)O)c(Cl)c1 [Example 175] | 2.6 nM | 4000 nM | – | –
12 | O=C(NCc1cccc(O)c1)c1ccc(C(=O)N[C@@H](CNC(=O)c2cccc3ccccc23)C(=O)O)c(Cl)c1 [Example 178] | 2.3 nM | 900 nM | – | –

Further molecules by falling IC50 [2, 4], results first:

Row | IC50 [2, 4] | SMILES | IC50 [1, 3] | IC50 [1, 5] | IC50 [2, 6]
13 | 47 nM | O=C(NC[C@H](NC(=O)c1c(F)cccc1Cl)C(=O)O)c1ccc2[nH]nnc2c1 [Example 226] | – | – | –
14 | 13 nM | O=C(NCc1cccc(O)c1)c1ccc(C(=O)N[C@@H](CNC(=O)c2c3c(nc4ccccc24)CCCC3)C(=O)O)c(Cl)c1 [Example 190] | – | – | –
15 | 5 nM | O=C(CSc1ncccn1)NC[C@H](NC(=O)c1ccc(C(=O)NCc2cccc(O)c2)cc1Cl)C(=O)O [Example 91] | 2450 nM | – | –
16 | 4.8 nM | O=C(Cc1ccc2ccccc2c1)NC[C@H](NC(=O)c1ccc(C(=O)NCc2cccc(O)c2)cc1Cl)C(=O)O [Example 87] | 1300 nM | – | –
17 | 2.4 nM | O=C(CSc1ccncc1)NC[C@H](NC(=O)c1ccc(C(=O)NCc2cccc(O)c2)cc1Cl)C(=O)O [Example 90] | 1450 nM | – | –
18 | 2.1 nM | CC(C)(C)C(=O)NC[C@H](NC(=O)c1ccc(C(=O)NCc2cccc(O)c2)cc1Cl)C(=O)O [Example 92] | 900 nM | – | –
19 | 1.9 nM | O=C(NCc1cccc(O)c1)c1ccc(C(=O)N[C@@H](CNC(=O)c2cnccn2)C(=O)O)c(Cl)c1 [Example 170] | 560 nM | – | –
20 | 1.8 nM | O=C(CC1c2ccccc2-c2ccccc21)NC[C@H](NC(=O)c1ccc(C(=O)NCc2cccc(O)c2)cc1Cl)C(=O)O [Example 88] | 12500 nM | – | –
21 | 1 nM | O=C(Cc1cccs1)NC[C@H](NC(=O)c1ccc(C(=O)NCc2cccc(O)c2)cc1Cl)C(=O)O [Example 84] | 1300 nM | – | –
22 | 1 nM | O=C(NCc1cccc(O)c1)c1ccc(C(=O)N[C@@H](CNC(=O)c2ccc3ncsc3c2)C(=O)O)c(Cl)c1 [Example 177] | 950 nM | – | –
23 | 0.5 nM | O=C(NCc1cccc(O)c1)c1ccc(C(=O)N[C@@H](CNC(=O)C23CC4CC(CC(C4)C2)C3)C(=O)O)c(Cl)c1 [Example 93] | 525 nM | – | –
